Measurements as given in patent US5776957A, “Nornicotine enantiomers for use as a treatment for dopamine related conditions and disease states” (The University of Kentucky Research Foundation, priority 1996, dated 1998).
Entries after “also recorded” stand apart in the source; their conditions may differ. Read-outs that look alike come from different tables or passages of the source.

Legend:
[1] = cited from earlier work
[2] = Amphetamine drug discrimination (substitution tests); type: in vivo, rat
Procedure: Rats were trained in on two-lever food-reinforced operant tasks to discriminate amphetamine (1 mg/kg) from saline. After discrimination training stabilized, test doses of amphetamine (0.0625-2.0 mg/kg), nicotine (0.1-1.0 mg/kg) or nornicotine (1-10 mg/kg) were assessed for their ability to substitute for the amphetamine training dose during brief test sessions in which food reinforcement was withheld.
Nine male Sprague-Hawley rats were obtained from Harlan Industries (Indianapolis, Ind.) and were caged individually with water continuously available. Food access was restricted in order to maintain body weights at approximately 80% of free-feeding weight. Prior to the start of the experiment, all rats received a single injection of amphetamine (1 mg.kg, IP) as part of an unrelated experiment. Apparatus Six operant chambers (ENV-001, Med Associates, St. Albans, Vt.) enclosed in a sound attenuating environment were used. Located in the bottom center of the front panel in each chamber was a 5×4.-cm opening to a recessed food tray. Two metal response levers were located on the front panel, one on each side of the food tray. The center of each lever was mounted 7.3 cm from the grid floor. A 28-Vcue light, 3 cm in diameter, was centered 6 cm above each lever. A personal computer, interfaced to the chamber with Med Associates equipment, controlled the experimental sessions and collected data.
The general procedures utilized to establish amphetamine discrimination were similar to those outlined previously (13). Briefly, rats were first given access to food pellets (45 mg sucrose pellet, Noyes Co., Lancaster, N.H.) dispensed noncontingently into the food tray with both levers present. One lever was then removed and the rat was shaped to depress the other lever for food reinforcement. Following this, rats received 15-min daily sessions in which the lever (left or right) available for food reinforcement was alternated daily. […] The start of each session was signaled by the onset of both cue lights mounted above the levers, and the termination of each session was signaled by the offset of these lights. This training phase was continued until the rat earned 20 reinforces on an FR25 schedule for two days.
Amphetamine discrimination training was conducted Monday through Friday. For this training, both levers were mounted in the chamber. Amphetamine (A; 1 mg/kg) or saline (S), was injected IP 15 min prior to the start of the session, with the order of injections being either AASS or SSAA. The left lever was designated as the amphetamine-correct lever for 4 rats, while the right lever was amphetamine -correct for 5 rats. On Monday, Wednesday and Friday, injection-appropriate responding was food-reinforcedon an FR25 schedule for the entire 15-min session. However, 2-min extinction periods were instituted at the beginning of sessions on Tuesday and Thursday (one amphetamine and one saline test per week) to assess the control of amphetamine (or saline) over responding. […] During the remaining 13 min of these sessions, contingent reinforcement for injection-appropriate responding was reinstated. This phase of training was continued until the rat completed the first FR25 on the correct lever for 10 consecutive sessions and also completed 80% or more responses on the injection-appropriate lever during 4 consecutive extinction periods.
The substitution phase was identical to the previously described amphetamine discrimination phase, except for the Friday session, which was decreased to a 4-min extinction session with no food available.

[3] = NIC and metabolites in rat brain after s.c. injection of radiolabelled NIC; type: in vivo
From the text: NIC metabolism studies involving HPLRC analysis invariably utilize NIC with a radiolabel (i.e., [^3 H], [^14 C] or [^11 C]) incorporated in the methyl group. However N-demethylated NIC metabolites (norNIC and norCOT) cannot be detected after injection of such radionuclides, since the label is lost in the formation of these metabolites. NIC and four NIC metabolites have recently been detected in rat brain 4 hr after s.c. injection of [2'-^14 C]NIC (FIG. 3, Table I). Three of these metabolites have been identified as COT, norNIC and norCOT. A fourth minor metabolite (Peak B) has not been completely identified but appears to be an N-demethylated metabolite, since it is not detected in the [^3 H-N-methyl]NIC studies.
COT, and therefore, is unlikely to originate from COT N-demethylation. 3-HydroxyCOT and its glucuronide conjugate were not detected as metabolites of either NIC or COT in brain, even though these are major biotransformation products in the periphery (Crooks, 1993).
It appears that NIC metabolites which accumulate with a time course that correlates with the development of behavioral sensitization to NIC have a role in eliciting sensitization to NIC. The inventors have detected NIC, COT, norNIC and norCOT in brain 4 hr following acute s.c. injection of (±)[2'-^14 C]NIC. S(-) [^3 H] -N-methyl]NIC is unsuitable for studying brain metabolism of NIC, since nor-metabolites (i.e., demethylated metabolites) cannot be detected due to [^3 H]-loss during metabolism (Crooks et al., 1995b, AP 7). Thus, commercially available (±)[2'-^14 C]NIC was used to determine NIC metabolites present in brain. This form of radiolabelled NIC provides a metabolically stable [^14 C]-label which allows measurement of all potential NIC metabolites.
A second "metabolite" (Peak A, FIG. 2) was also detected at each time point and most likely results from a combination of metabolic cleavage of the N-methyl group and dissociated-[^3 H], i e, Peak A represents an oxidized 1-carbon unit and indicates the extent of NIC N-demethylation. Note, in our subsequent studies with [2'-^14 C]NIC, Peak A was not observed, which is consistent with our interpretation of the results (Table 1).

[4] = test system: [3H]DA-preloaded rat striatal slices (nicotinic receptors); assay: [3H]overflow (DA release) from [3H]DA-preloaded rat striatal slices; type: cell-based
Procedure: In vitro pharmacological effects of NIC are generally investigated using either striatal slices or synaptosome preparations preloaded with [^3 H] DA. NIC-evoked [^3 H]overflow is obtained routinely in the presence of nomifensine (10 μM; a DA uptake inhibitor) and for pargyline (10 μM, a monoamine oxidase inhibitor) in the superfusion buffer, such that [^3 H]overflow represents primarily [^3 H]DA rather than [H]DA-metabolites (Zumstein et al., 1981, Hoffmann and Cubeddu, 1982, Dwoskin and Zahniser, 1986, Rapier et al., 1988), and for this reason, [^3 H]overflow also will be referred to as [^3 H] DA release in the proposal.
The present studies use striatal slices superfused with various concentrations of NIC or norNIC for prolonged periods.
FIG. 4. […] Insets illustrate the response to the low concentration range. […] NIC exposure indicated by the bar under time course. Note: 1-min sample collection period. […] N=4 rats.
Rat striatal slices were depolarized with 10 μM NIC, 20 mM K+or 1 Hz, 60 pulses or 3 Hz, 180 pulses electrical field stimulation. […] N=4.
MEC or DHβE was included in the superfusion buffer for 60 min prior to the addition of NIC, and superfusion continued for 60 min in the presence of NIC+antagonist.

[5] = test system: mouse striatal synaptosomes; conditions: Grady et al., 1992, cited from earlier work
[6] = rat brain, 4 hrs after s.c. injection, Table 1, footnote e
[7] = rat brain, 4 hrs after s.c. injection, Table 1, footnote f

SMILES: CC(N)Cc1ccccc1 (stereo not drawn) [amphetamine, d-Amphetamine]
- cross-sensitization between nicotine and amphetamine [1]: has not been observed
- substitution for amphetamine training dose ([2]; 1 and 2 mg/kg): substituting fully; also recorded: substituted fully
- amphetamine-appropriate responding ([2]; 1 and 2 mg/kg IP, 15 min): greater than 80%
- total number of lever presses ([2]; 15 min): dose-related decrease in total number of lever presses

SMILES: O=C1CCC(c2cccnc2)N1 (stereo not shown) [NorCOT, norcotinine]
- presence as metabolite in brain ([3]; rat brain, after s.c. radiolabelled NIC): minor CNS metabolite of NIC

SMILES: CCN1CCC[C@H]1CNC(=O)c1c(O)c(Cl)cc(Cl)c1OC [raclopride]
- effect on overflow evoked by 1 or 3 Hz stimulation ([4]; 1 μM, electrical field stimulation): increases overflow

SMILES: CN1CCC[14CH]1c1cccnc1 (racemic) [[^14 C-2']-NIC]
- Percent of Total Radiolabel: COT [3, 6]: 60.8 ± 0.63%
- Percent of Total Radiolabel: NIC [3, 6]: 24.2 ± 2.94%
- Percent of Total Radiolabel: Peak A [3, 6]: 0.0 ± 0.0%
- Percent of Total Radiolabel: Peak B [3, 6]: 0.0 ± 0.0%
- Percent of Total Radiolabel: norNIC [3, 6]: 15.1 ± 2.54%
- Percent of Total Radiolabel: COT [3, 7]: 62.9 ± 5.27%
- Percent of Total Radiolabel: NIC [3, 7]: 14.2 ± 3.30%
- Percent of Total Radiolabel: Peak A [3, 7]: 0.0 ± 0.0%
- Percent of Total Radiolabel: Peak B [3, 7]: 2.33 ± 0.12%
- Percent of Total Radiolabel: norCOT [3, 7]: 4.15 ± 0.48%
- Percent of Total Radiolabel: norNIC [3, 7]: 16.5 ± 2.04%

SMILES: CO[C@H]1CC=C2CCN3CCC4=C(CC(=O)OC4)[C@]23C1 [DHβE, dihydro-β-erythroidine]
- inhibition of NIC-evoked [3H]overflow ([4]; 10 μM NIC, concentration-dependent): robustly inhibited
- effect on [3H]DA release itself ([4]; 100 μM): evoked the release of [^3 H]DA itself
- inhibition of norNIC-evoked [3H]overflow ([4]; high concentrations (100 μM-3 mM) of norNIC): ineffective in inhibiting
- inhibition of norNIC-evoked [3H]overflow ([4]; low concentrations (<100 μM) of norNIC): effectively inhibited
- mode of antagonism of norNIC response ([4]; norNIC concentration-response curve): competitive

SMILES: c1cncc(C2CCCN2)c1 (racemic) [(±) norNIC]
- evoked [3H]overflow / [3H]DA release [5]: concentration dependent increase
- evoked [3H]overflow / [3H]DA release ([5]; listed as (+) nornicotine): concentration-dependent increase

SMILES: CN1C(=O)C(O)CC1c1cccnc1 (stereo not shown) [3-HydroxyCOT]
- presence as metabolite in brain ([3]; rat, in vivo, sc): not detected
